Data from ChEMBL document CHEMBL1127508, “Conformationally restricted competitive antagonists of human/rat corticotropin-releasing factor” (J Med Chem, 1994).

Key:
[1] = target: T1, Corticotropin-releasing factor receptor 1 (Rattus norvegicus) (UniProt P35353); assay: Intrinsic activity in ACTH release assay as percent CRF response; assay type: functional
T1 sequence (whole entry): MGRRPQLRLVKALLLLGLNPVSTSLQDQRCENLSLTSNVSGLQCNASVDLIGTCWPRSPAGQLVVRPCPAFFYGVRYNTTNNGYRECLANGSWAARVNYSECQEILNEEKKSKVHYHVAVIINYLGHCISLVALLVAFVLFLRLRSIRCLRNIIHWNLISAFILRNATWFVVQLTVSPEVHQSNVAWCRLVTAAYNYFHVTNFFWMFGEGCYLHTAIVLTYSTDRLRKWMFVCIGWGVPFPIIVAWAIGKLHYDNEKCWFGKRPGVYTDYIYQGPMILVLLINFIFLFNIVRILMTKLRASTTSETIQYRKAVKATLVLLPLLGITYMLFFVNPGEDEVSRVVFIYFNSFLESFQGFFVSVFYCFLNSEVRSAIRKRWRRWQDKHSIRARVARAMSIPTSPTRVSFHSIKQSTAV

[2] = target: T1, Corticotropin-releasing factor receptor 1 (Rattus norvegicus); assay: Relative antagonistic potency in vitro measuring alteration of CRF-induced release of ACTH by rat anterior pituitary cells in culture; assay type: functional, cell-based; conditions: Pituitary gland cell

Intrinsic activity [1] | Activity [2] | Structure (SMILES)
23 | < 0.001 | CCCC[C@H](NC(=O)[C@H](CC(C)C)NC(=O)[C@H](CCCCN)NC(=O)[C@H](CCCN=C(N)N)NC(=O)[C@H](CC(N)=O)NC(=O)[C@H](CO)NC(=O)[C@H](Cc1c[nH]cn1)NC(=O)[C@H](C)NC(=O)[C@H](CCC(N)=O)NC(=O)[C@H](CCC(N)=O)NC(=O)[C@H](C)NC(=O)[C@H](CC(C)C)NC(=O)[C@H](CCC(N)=O)NC(=O)[C@H](CCC(=O)O)NC(=O)[C@H](C)NC(=O)[C@H](CCCN=C(N)N)NC(=O)[C@H](C)NC(=O)[C@H](CCCC)NC(=O)[C@H]1CCC(=O)NCCCC[C@H](NC(=O)[C@H](CCCN=C(N)N)NC(=O)[C@H](CC(C)C)NC(=O)[C@H](CC(C)C)NC(=O)[C@H](Cc2c[nH]cn2)NC(=O)[C@H](N)Cc2ccccc2)C(=O)N[C@@H](C(C)C)C(=O)N[C@@H](CC(C)C)C(=O)N1)C(=O)N[C@@H](CCC(=O)O)C(=O)N[C@H](C(=O)N[C@H](C(=O)C(N)=O)[C@@H](C)CC)[C@@H](C)CC
 | 0.006 | CCCC[C@H](NC(=O)[C@H](CC(C)C)NC(=O)[C@H](CCCCN)NC(=O)[C@H](CCCN=C(N)N)NC(=O)[C@H](CC(N)=O)NC(=O)[C@H](CO)NC(=O)[C@H](Cc1c[nH]cn1)NC(=O)[C@H](C)NC(=O)[C@H](CCC(N)=O)NC(=O)[C@H](CCC(N)=O)NC(=O)[C@H](C)NC(=O)[C@H](CC(C)C)NC(=O)[C@H](CCC(N)=O)NC(=O)[C@H](CCC(=O)O)NC(=O)[C@H](C)NC(=O)[C@H](CCCN=C(N)N)NC(=O)[C@H](C)NC(=O)[C@H](CCCC)NC(=O)[C@H]1CC(=O)NCCC[C@H](NC(=O)[C@H](CC(C)C)NC(=O)[C@H](CC(C)C)NC(=O)[C@H](Cc2c[nH]cn2)NC(=O)[C@H](N)Cc2ccccc2)C(=O)N[C@@H](CCC(=O)O)C(=O)N[C@@H](C(C)C)C(=O)N[C@@H](CC(C)C)C(=O)N1)C(=O)N[C@@H](CCC(=O)O)C(=O)N[C@H](C(=O)N[C@H](C(=O)C(N)=O)[C@@H](C)CC)[C@@H](C)CC
2 | 0.001 | CCCC[C@H](NC(=O)[C@@H]1CC(=O)NCCC[C@H](NC(=O)[C@H](CC(C)C)NC(=O)[C@H](CC(C)C)NC(=O)[C@H](Cc2c[nH]cn2)NC(=O)[C@H](N)Cc2ccccc2)C(=O)N[C@@H](CCC(=O)O)C(=O)N[C@@H](C(C)C)C(=O)N[C@@H](CC(C)C)C(=O)N1)C(=O)N[C@@H](C)C(=O)N[C@@H](CCCN=C(N)N)C(=O)N[C@@H](C)C(=O)N[C@@H](CCC(=O)O)C(=O)N[C@@H](CCC(N)=O)C(=O)N[C@@H](CC(C)C)C(=O)N[C@@H](C)C(=O)N[C@@H](CCC(N)=O)C(=O)N[C@@H](CCC(N)=O)C(=O)N[C@@H](C)C(=O)N[C@@H](Cc1c[nH]cn1)C(=O)N[C@@H](CO)C(=O)N[C@@H](CC(N)=O)C(=O)N[C@@H](CCCN=C(N)N)C(=O)N[C@@H](CCCCN)C(=O)N[C@@H](CC(C)C)C(=O)N[C@@H](CCCC)C(=O)N[C@@H](CCC(=O)O)C(=O)N[C@H](C(=O)N[C@H](C(=O)C(N)=O)[C@@H](C)CC)[C@@H](C)CC
3 | 0.02 | CCCC[C@H](NC(=O)[C@@H]1CCC(=O)NCCCC[C@H](NC(=O)[C@H](CCCN=C(N)N)NC(=O)[C@H](CC(C)C)NC(=O)[C@H](CC(C)C)NC(=O)[C@H](Cc2c[nH]cn2)NC(=O)[C@H](N)Cc2ccccc2)C(=O)N[C@@H](C(C)C)C(=O)N[C@@H](CC(C)C)C(=O)N1)C(=O)N[C@@H](C)C(=O)N[C@@H](CCCN=C(N)N)C(=O)N[C@@H](C)C(=O)N[C@@H](CCC(=O)O)C(=O)N[C@@H](CCC(N)=O)C(=O)N[C@@H](CC(C)C)C(=O)N[C@@H](C)C(=O)N[C@@H](CCC(N)=O)C(=O)N[C@@H](CCC(N)=O)C(=O)N[C@@H](C)C(=O)N[C@@H](Cc1c[nH]cn1)C(=O)N[C@@H](CO)C(=O)N[C@@H](CC(N)=O)C(=O)N[C@@H](CCCN=C(N)N)C(=O)N[C@@H](CCCCN)C(=O)N[C@@H](CC(C)C)C(=O)N[C@@H](CCCC)C(=O)N[C@@H](CCC(=O)O)C(=O)N[C@H](C(=O)N[C@H](C(=O)C(N)=O)[C@@H](C)CC)[C@@H](C)CC
